From patent publication US20170233413A1, “SUBSTITUTED ANNULATED PYRIMIDINES AND USE THEREOF” (Bayer Pharma Aktiengesellschaft, priority 2014, published 2017)

Assays:
[1] = molecular target: T1, recombinant guanylate cyclase reporter cell line (Rattus norvegicus, UniProt P19686+P20595); experiment: Effect on a recombinant guanylate cyclase reporter cell line; format: cell-based; conditions: MEC = minimum effective concentration; in some cases means of individual determinations
T1 construct: expressed in transfected cells
T1 sequence (P19686 1-690): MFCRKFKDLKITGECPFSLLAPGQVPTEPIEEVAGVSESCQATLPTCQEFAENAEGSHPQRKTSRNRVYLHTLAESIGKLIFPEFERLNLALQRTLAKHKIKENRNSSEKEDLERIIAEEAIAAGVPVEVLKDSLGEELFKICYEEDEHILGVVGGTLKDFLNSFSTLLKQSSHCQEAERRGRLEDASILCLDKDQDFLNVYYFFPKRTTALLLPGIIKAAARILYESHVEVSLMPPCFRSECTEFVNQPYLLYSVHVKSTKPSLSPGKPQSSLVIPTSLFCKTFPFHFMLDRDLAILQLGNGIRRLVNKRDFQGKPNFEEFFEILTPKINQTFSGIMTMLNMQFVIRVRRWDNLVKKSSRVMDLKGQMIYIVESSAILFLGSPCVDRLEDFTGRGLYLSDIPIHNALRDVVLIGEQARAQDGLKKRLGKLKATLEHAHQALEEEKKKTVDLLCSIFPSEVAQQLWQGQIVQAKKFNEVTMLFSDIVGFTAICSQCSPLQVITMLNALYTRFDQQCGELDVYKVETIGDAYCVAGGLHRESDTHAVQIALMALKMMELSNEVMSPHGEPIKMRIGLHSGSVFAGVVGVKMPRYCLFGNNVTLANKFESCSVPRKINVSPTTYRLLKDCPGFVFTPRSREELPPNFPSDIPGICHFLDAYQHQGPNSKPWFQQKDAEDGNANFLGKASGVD
T1 sequence (P20595 1-619): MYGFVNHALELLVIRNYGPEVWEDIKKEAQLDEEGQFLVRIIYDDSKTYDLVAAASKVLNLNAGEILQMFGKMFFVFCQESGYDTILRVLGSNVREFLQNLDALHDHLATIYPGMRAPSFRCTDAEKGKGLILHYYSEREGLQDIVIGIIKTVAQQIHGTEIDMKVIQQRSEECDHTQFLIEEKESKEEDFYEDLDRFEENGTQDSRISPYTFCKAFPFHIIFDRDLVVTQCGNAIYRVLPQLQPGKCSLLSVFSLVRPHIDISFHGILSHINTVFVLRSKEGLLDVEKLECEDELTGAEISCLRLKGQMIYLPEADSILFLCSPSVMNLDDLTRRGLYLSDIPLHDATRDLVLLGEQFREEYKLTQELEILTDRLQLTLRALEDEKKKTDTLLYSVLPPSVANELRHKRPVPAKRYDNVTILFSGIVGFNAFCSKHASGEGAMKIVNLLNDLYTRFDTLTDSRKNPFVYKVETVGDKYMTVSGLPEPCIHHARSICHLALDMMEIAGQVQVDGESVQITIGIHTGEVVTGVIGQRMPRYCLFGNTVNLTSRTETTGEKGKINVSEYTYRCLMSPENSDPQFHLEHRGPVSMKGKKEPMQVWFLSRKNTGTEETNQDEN
How it was run: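 Values are reported as MEC, sometimes averaged over individual determinations. The test system is a reporter cell line expressing recombinant rat guanylate cyclase.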

[2] = molecular target: T2, human phosphodiesterase 5 (PDE 5) (Homo sapiens, UniProt O76074); experiment: Inhibition of human phosphodiesterase 5 (PDE 5); format: biochemical; conditions: PDE 5 preparation from human platelets; in some cases means of individual determinations
T2 construct: PDE 5 preparations are obtained from human platelets by disruption; from tissue; host or cells: human platelets
How it was run: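 IC50 comes from percent inhibition over a 1:3 series with final levels of 4 to 0.0018 μM. Reaction: tritiated cGMP tracer (0.025 μCi) with platelet-derived, Mono Q-purified enzyme, 1 h at room temperature in Tris pH 7.5, under 70% turnover. Read-out by scintillation proximity beads.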

MEC [1] [µM] | IC50 [2] [nM] | Structure (SMILES)
0.3 | 130 | CC1(C)C(=O)Nc2nc(-c3nn(Cc4ccccc4F)c4cc(Cl)ccc34)nc(C(=O)NCCC(F)(F)F)c21 [Example 45]
0.3 | 10 | CC1(CNC(=O)c2nc(-c3nn(Cc4ccccc4F)c4ncccc34)nc3c2C(C)(C)C(=O)N3)COC1 [Example 103, 2-[1-(2-fluorobenzyl)-1H-pyrazolo[3,4-b]pyridin-3-yl]-5,5-dimethyl-N-[(3-methyloxetan-3-yl)methyl]-6-oxo-6,7-dihydro-5H-pyrrolo[2,3-d]pyrimidine-4-carboxamide]
0.1 | 44 | CNC(=O)c1nc(-c2nn(Cc3ccccc3F)c3ncccc23)nc2c1C(C)(C)C(=O)N2 [Example 86, 2-[1-(2-fluorobenzyl)-1H-pyrazolo[3,4-b]pyridin-3-yl]-N,5,5-trimethyl-6-oxo-6,7-dihydro-5H-pyrrolo[2,3-d]pyrimidine-4-carboxamide]
0.2 | 1200 | Cc1nc2c(cc1F)c(-c1nc3c(c(C(N)=O)n1)C(C)(C(F)(F)F)C(=O)N3)nn2Cc1c(F)ccc(F)c1F (racemic) [Example 15, rac-2-[5-fluoro-6-methyl-1-(2,3,6-trifluorobenzyl)-1H-pyrazolo[3,4-b]pyridin-3-yl]-5-methyl-6-oxo-5-(trifluoromethyl)-6,7-dihydro-5H-pyrrolo[2,3-d]pyrimidine-4-carboxamide]
0.3 | 86 | Cc1nc2c(cc1F)c(-c1nc3c(c(C(N)=O)n1)C(C)(C)C(=O)N3)nn2Cc1ccccc1F [Example 5, 2-[5-Fluoro-1-(2-fluorobenzyl)-6-methyl-1H-pyrazolo[3,4-b]pyridin-3-yl]-5,5-dimethyl-6-oxo-6,7-dihydro-5H-pyrrolo[2,3-d]pyrimidine-4-carboxamide]
0.1 | 44 | Cc1cccnc1NC(=O)c1nc(-c2nn(Cc3ccccc3F)c3ncccc23)nc2c1C(C)(C)C(=O)N2 [Example 113, 2-[1-(2-fluorobenzyl)-1H-pyrazolo[3,4-b]pyridin-3-yl]-5,5-dimethyl-N-(3-methylpyridin-2-yl)-6-oxo-6,7-dihydro-5H-pyrrolo[2,3-d]pyrimidine-4-carboxamide]
0.1 | 25 | CC1(C)C(=O)Nc2nc(-c3nn(Cc4ccccc4F)c4ncccc34)nc(C(=O)NCc3ccccn3)c21 [Example 117, 2-[1-(2-fluorobenzyl)-1H-pyrazolo[3,4-b]pyridin-3-yl]-5,5-dimethyl-6-oxo-N-(pyridin-2-ylmethyl)-6,7-dihydro-5H-pyrrolo[2,3-d]pyrimidine-4-carboxamide]
1 | 330 | CN(C)CCNC(=O)c1nc(-c2nn(Cc3ccccc3F)c3ncccc23)nc2c1C(C)(C)C(=O)N2 [Example 128, N-[2-(dimethylamino)ethyl]-2-[1-(2-fluorobenzyl)-1H-pyrazolo[3,4-b]pyridin-3-yl]-5,5-dimethyl-6-oxo-6,7-dihydro-5H-pyrrolo[2,3-d]pyrimidine-4-carboxamide]
0.3 | 68 | Cc1ccc(NC(=O)c2nc(-c3nn(Cc4ccccc4F)c4ncccc34)nc3c2C(C)(C)C(=O)N3)cn1 [Example 91, 2-[1-(2-fluorobenzyl)-1H-pyrazolo[3,4-b]pyridin-3-yl]-5,5-dimethyl-N-(6-methylpyridin-3-yl)-6-oxo-6,7-dihydro-5H-pyrrolo[2,3-d]pyrimidine-4-carboxamide]
0.3 | 38 | CCCCCNC(=O)c1nc(-c2nn(Cc3ccccc3F)c3ncccc23)nc2c1C(C)(C)C(=O)N2 [Example 131, 2-[1-(2-Fluorobenzyl)-1H-pyrazolo[3,4-b]pyridin-3-yl]-5,5-dimethyl-6-oxo-N-pentyl-6,7-dihydro-5H-pyrrolo[2,3-d]pyrimidine-4-carboxamide]
2 | 170 | CC1(C(F)(F)F)C(=O)Nc2nc(-c3nn(Cc4ncccc4F)c4ncc(F)cc34)nc(C(N)=O)c21 (single isomer, unassigned; ent-2) [Example 22, ent-2-{5-Fluoro-1-[(3-fluoropyridin-2-yl)methyl]-1H-pyrazolo[3,4-b]pyridin-3-yl}-5-methyl-6-oxo-5-(trifluoromethyl)-6,7-dihydro-5H-pyrrolo[2,3-d]pyrimidine-4-carboxamide (enantiomer A)]
0.3 | 87 | CCC(=O)C(C)NC(=O)c1nc(-c2nn(Cc3ccccc3F)c3ncccc23)nc2c1C(C)(C)C(=O)N2 (racemic) [Example 66, rac-2-[1-(2-fluorobenzyl)-1H-pyrazolo[3,4-b]pyridin-3-yl]-5,5-dimethyl-6-oxo-N-(3-oxopentan-2-yl)-6,7-dihydro-5H-pyrrolo[2,3-d]pyrimidine-4-carboxamide]
0.01 | 770 | Cc1nc2c(cc1F)c(-c1nc3c(c(C(=O)N(C)CC4CC4)n1)C(C)(C)C(=O)N3)nn2Cc1cccc(F)c1F [Example 38]
0.1 | 23 | CC1(C)C(=O)Nc2nc(-c3nn(Cc4ccccc4F)c4ncccc34)nc(C(=O)NCC3CC3)c21 [Example 84, N-(cyclopropylmethyl)-2-[1-(2-fluorobenzyl)-1H-pyrazolo[3,4-b]pyridin-3-yl]-5,5-dimethyl-6-oxo-6,7-dihydro-5H-pyrrolo[2,3-d]pyrimidine-4-carboxamide]
0.3 | 14 | CC1(C)C(=O)Nc2nc(-c3nn(Cc4ccccc4F)c4cc(Cl)ccc34)nc(C(=O)NC3CC3)c21 [Example 43]
1 | 310 | CC(C)(N)CNC(=O)c1nc(-c2nn(Cc3ccccc3F)c3ncc(F)cc23)nc2c1C(C)(C)C(=O)N2 [Example 30]
0.1 | 51 | CC1(C)C(=O)Nc2nc(-c3nn(Cc4ccccc4F)c4ncc(F)cc34)nc(C(=O)NCC3(O)CC3)c21 [Example 27, 2-[5-Fluoro-1-(2-fluorobenzyl)-1H-pyrazolo[3,4-b]pyridin-3-yl]-N-[(1-hydroxycyclopropyl)methyl]-5,5-dimethyl-6-oxo-6,7-dihydro-5H-pyrrolo[2,3-d]pyrimidine-4-carboxamide]
1 | 86 | Cc1nc2c(cc1F)c(-c1nc3c(c(C(=O)NCC(C)(N)CC(F)F)n1)C(C)(C)C(=O)N3)nn2Cc1cccc(F)c1F (single isomer, unassigned) [Example 58]
0.1 | 10 | CC1(C)C(=O)Nc2nc(-c3nn(Cc4ccccc4F)c4ncccc34)nc(C(=O)NCc3ccco3)c21 [Example 69, 2-[1-(2-fluorobenzyl)-1H-pyrazolo[3,4-b]pyridin-3-yl]-N-(furan-2-ylmethyl)-5,5-dimethyl-6-oxo-6,7-dihydro-5H-pyrrolo[2,3-d]pyrimidine-4-carboxamide]
3 | 230 | CC1(C(F)(F)F)C(=O)Nc2nc(-c3nn(Cc4ncccc4F)c4ncc(F)cc34)nc(C(N)=O)c21 (racemic) [Example 21, rac-2-{5-Fluoro-1-[(3-fluoropyridin-2-yl)methyl]-1H-pyrazolo[3,4-b]pyridin-3-yl}-5-methyl-6-oxo-5-(trifluoromethyl)-6,7-dihydro-5H-pyrrolo[2,3-d]pyrimidine-4-carboxamide]
1 | 48 | CC1(C)C(=O)Nc2nc(-c3nn(Cc4ccccc4F)c4ncccc34)nc(C(=O)NCCC(N)=O)c21 [Example 95, N-(3-amino-3-oxopropyl)-2-[1-(2-fluorobenzyl)-1H-pyrazolo[3,4-b]pyridin-3-yl]-5,5-dimethyl-6-oxo-6,7-dihydro-5H-pyrrolo[2,3-d]pyrimidine-4-carboxamide]
